Test results: patent publication US20060040883A1, “Methods for treating cancer using anti-Wnt2 monoclonal antibodies and siRNA” (The Regents of the University of California, priority 2004, published 2006)

Key:
JNK = JNK activity; type: cell-based; conditions: inhibition of Dvl by blocking CK-2 activity
From the text: Through frizzled receptor and dishevelled protein, Wnt signal activates two distinct pathways: the canonical pathway (i.e., β catenin pathway) and the JNK pathway. Dishevelled protein has three highly conserved domains, DIX, PDZ, and DEP. Among them, the DIX and PDZ domains are necessary for the canonical signaling pathway while the DEP domain is important for the activation of JNK pathway. […] Most likely, the activation of JNK after anti-Wnt antibody treatment is through Dvl.

A549, LOX and FEMX = experiment: Specificity control with blocking peptide (apoptosis by flow cytometry); type: cell-based, human; conditions: 300 μg/ml for 72 hrs, alone
From the text: Cells were harvested by trypsinization and processed for determination of cell surface annexin-V and propodium iodide (PI) contents, according to the manufacture's protocol (Annexin V FITC Apoptosis Detection Kit (Oncogene, Cambridge, Mass.); Apotarget (BioSource International)). With the use of Annexin-V-PI double staining regime, three populations of cells are distinguishable in two color flow cytometry: (a) non-apoptotic cells: annexin-V and PI negative; (b) early apoptotic cells with exposed phosphatidylserine but intact cell membranes bound to Annexin V-FITC but excluded propidium iodide; and (c) cells in necrotic or late apoptotic stages were labeled with both Annexin V-FITC and propidium iodide. Then stained cells were immediately analyzed by flow cytometry (FACScan; Decton Dickinson, Franklin Lake, N.J.). TUNEL staining of tumor tissue samples harvested from in vivo experiment was performed using ApopTag Peroxidase In Situ Oligo Ligation Apoptosis Detection Kit (Chemicon International, Temecula, Calif.) according to the manufacturer's protocol.
As a specificity control, induction of apoptosis was examined by using monoclonal Wnt2 antibody blocked by overnight pre-incubation with blocking peptide (30-fold over the antibody) in A549, LOX and FEMX. […] Same dose of blocking peptide (300 μg/ml for 72 hrs) alone had no effect on cell viability.

MS1 mesothelioma cells = experiment: Proliferation assay (tetrazolium conversion) in MS1 cells; type: cell-based, human; conditions: three days
Procedure: Alimta® (MTA) was supplied by Eli Lilly (Indianapolis, Ind.). Alimta® was diluted in sterile physiological solution at a concentration of 10 mg/ml. The stock was divided into aliquots, stored at −80° C., and diluted in culture medium before each experiment. Wnt2 antibody was stored at 4° C. and used as previously described. Cell proliferation was determined by measuring metabolic activity of tetrazolium conversion (Cell Titer 96 assay, Promega, Madison, Wis.). Briefly, 5,000 cells were plated per well in a 96-well plate and culture medium containing increasing concentrations of both drugs was added. Plates were incubated at 37° C. for 72 hours in a CO2 incubator. Then a solubilization/stop solution was added and the absorbance was recorded with a […] at a wavelength of 570 nm. Each experiment was repeated at least 3 times in triplicate.
The effects of the anti-Wnt2 monoclonal antibody on cell proliferation were assessed and compared with the effects of Alimta®. Alimta® (LY231514, MTA, pemetrexed) is a novel multifunctional antifolate antimetabolite (Hanauske Lung Cancer 45 Suppl 1:S121-4 (2004)). […] Alimta® is now considered a standard in the treatment of surgically non-amenable mesothelioma. […] Three days later the cell proliferation was assessed by measuring the metabolic activity of cellular enzyme (here the tetrazolium conversion).

[1] = tested on: hepatoma cell lines HepG2 and Hep3B; experiment: Cytotoxic effects in hepatoma cell lines; type: cell-based; conditions: data not shown

## O=c1cc(-c2ccc(O)cc2)oc2cc(O)cc(O)c12 [Apigenin, reference compound]
JNK
  JNK activity: increased JNK activity

## blocking peptide: peptide pre-incubated with the anti-Wnt2 antibody (30-fold over the antibody) to block it (SSQRQLCHRHPDVMR; UniProt P09544 49-63, looked up, fragment) [reference compound]
A549, LOX and FEMX
  cell viability: no effect

## Nc1nc2[nH]cc(CCc3ccc(C(=O)N[C@@H](CCC(=O)O)C(=O)O)cc3)c2c(=O)[nH]1 [Alimta®, pemetrexed]
MS1 mesothelioma cells; 1 μg/ml
  decrease in cell proliferation: about 41.9%
MS1 mesothelioma cells; 10 μg/ml
  decrease in cell proliferation: about 42.9%

B1: anti-Wnt2 monoclonal antibody: mouse monoclonal IgG1 raised against residues 49-63 of human Wnt2; 17F7.G7 was used in the experiments described (protein)
chain: SWWYMRATGGSSRVMCDNVPGLVSSQRQLCHRHPDVMRAISQGVAEWTAECQHQFRQHRWNCNTLDRDHSLFGRVLLRSSRESAFVYAISSAGVVFAITRACSQGEVKSCSCDPKKMGSAKDSKGIFDWGGCSDNIDYGIKFARAFVDAKERKGKDARALMNLHNNRAGRKAVKRFLKQECKCHGVSGSCTLRTCWLAMADFRKTGDYLWRKYNGAIQVVMNQDGTGFTVANERFKKPTKNDLVYFENSPDYCIRDREAGSLGTAGRVCNLTSRGMDSCEVMCCGRGYDTSHVTRMTKCGCKFHWCCAVRCQDCLEALDVHTCKAPKNADWTTAT
[1]
  cytotoxic effects: cytotoxic effects
